Experiments:
[1] = biological target: T1, human recombinant serotonin (5-Hydroxytryptamine) 5-HT2A receptor (Homo sapiens, UniProt P28223); assay: Serotonin 5-HT2A radioligand binding ([3H]Ketanserin); conditions: percent inhibition of specific binding
T1 construct: expressed in transfected cells; host or cells: CHO-K1 cells
Experimental: (§1) Compounds of the invention were incubated with 0.5 nM [^3H]Ketanserin for 60 minutes at 25° C. Non-specific binding was estimated in the presence of 1 μM Mianserin. Receptor proteins were filtered and washed, the filters were then counted to determine [^3H]Ketanserin specifically bound. […] Biochemical assay results are presented as the percent inhibition of specific binding in Table 6.

[2] = biological target: T2, human recombinant adrenergic α1D receptor (Homo sapiens, UniProt P25100); assay: Adrenergic α1D radioligand binding ([3H]Prozosin); design: Inhibition of ligand binding, Adren. alpha1D: concentration or dose not given beside the values; conditions: percent inhibition of specific binding
T2 construct: expressed in transfected cells; host or cells: HEK-293 cells
T2 sequence (P25100 1-572): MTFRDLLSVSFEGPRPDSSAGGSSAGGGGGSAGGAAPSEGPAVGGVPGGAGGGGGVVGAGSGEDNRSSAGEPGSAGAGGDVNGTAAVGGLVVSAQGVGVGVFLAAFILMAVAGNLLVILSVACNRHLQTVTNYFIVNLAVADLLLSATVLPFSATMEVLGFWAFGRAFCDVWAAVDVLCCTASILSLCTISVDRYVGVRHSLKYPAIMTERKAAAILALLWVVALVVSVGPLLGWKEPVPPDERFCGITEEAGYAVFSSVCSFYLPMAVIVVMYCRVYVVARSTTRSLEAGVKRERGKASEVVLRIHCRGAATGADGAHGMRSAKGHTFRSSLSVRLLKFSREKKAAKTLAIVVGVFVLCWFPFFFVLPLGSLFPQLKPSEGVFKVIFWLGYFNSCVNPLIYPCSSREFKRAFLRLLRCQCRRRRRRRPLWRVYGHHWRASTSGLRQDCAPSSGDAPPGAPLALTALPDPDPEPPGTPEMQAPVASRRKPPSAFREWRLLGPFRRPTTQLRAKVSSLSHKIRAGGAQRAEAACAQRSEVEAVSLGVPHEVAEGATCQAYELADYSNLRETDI
Experimental: as §1, with “of” for “of the”, “0.6” for “0.5”, “[^3H]Prozosin” for “[^3H]Ketanserin”, “10” for “1”, “phentolamine.” for “Mianserin.”

[3] = biological target: T3, human recombinant serotonin (5-Hydroxytryptamine) 5-HT2C receptor (Homo sapiens, UniProt P28335); assay: Serotonin 5-HT2C radioligand binding ([3H]Mesulergine); design: Inhibition of ligand binding, Ser. 5-HT2C: concentration or dose not given beside the values; conditions: percent inhibition of specific binding
T3 construct: expressed in transfected cells; host or cells: CHO-K1 cells
T3 sequence (P28335 33-458): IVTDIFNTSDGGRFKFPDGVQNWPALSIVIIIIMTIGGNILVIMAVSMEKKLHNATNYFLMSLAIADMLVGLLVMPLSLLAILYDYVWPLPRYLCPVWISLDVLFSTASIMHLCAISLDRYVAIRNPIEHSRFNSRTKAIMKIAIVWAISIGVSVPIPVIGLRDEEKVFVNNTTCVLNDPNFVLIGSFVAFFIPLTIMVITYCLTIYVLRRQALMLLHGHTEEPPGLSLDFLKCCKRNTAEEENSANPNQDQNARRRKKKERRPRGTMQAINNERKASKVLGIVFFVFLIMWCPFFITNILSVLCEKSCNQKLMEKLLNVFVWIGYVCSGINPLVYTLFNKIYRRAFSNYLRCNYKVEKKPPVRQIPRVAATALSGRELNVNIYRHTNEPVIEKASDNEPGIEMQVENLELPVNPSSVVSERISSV
Experimental: as §1, with “1” for “0.5”, “[^3H]Mesulergine” for “[^3H]Ketanserin”

[4] = biological target: T4, human recombinant adrenergic α2B receptor (Homo sapiens, UniProt P18089); assay: Adrenergic α2B radioligand binding ([3H]Rauwolscine); design: Inhibition of ligand binding, Adren. alpha2B: concentration or dose not given beside the values; conditions: percent inhibition of specific binding
T4 construct: expressed in transfected cells; host or cells: CHO-K1 cells
T4 sequence (P18089 1-450): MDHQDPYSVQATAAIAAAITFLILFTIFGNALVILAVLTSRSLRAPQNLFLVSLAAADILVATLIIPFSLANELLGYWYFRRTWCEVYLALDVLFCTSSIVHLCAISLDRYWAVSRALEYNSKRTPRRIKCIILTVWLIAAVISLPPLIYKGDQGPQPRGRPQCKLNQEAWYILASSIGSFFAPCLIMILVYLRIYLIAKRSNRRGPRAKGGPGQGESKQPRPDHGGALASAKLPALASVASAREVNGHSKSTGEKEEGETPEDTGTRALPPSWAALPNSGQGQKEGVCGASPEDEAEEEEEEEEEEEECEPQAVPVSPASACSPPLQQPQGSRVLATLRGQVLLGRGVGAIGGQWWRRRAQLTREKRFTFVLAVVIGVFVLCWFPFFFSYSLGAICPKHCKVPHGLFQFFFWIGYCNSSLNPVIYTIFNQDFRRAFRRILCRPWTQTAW
Summary of the method: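 Membranes from CHO-K1 cells expressing the receptor, in 50 mM Tris-HCl pH 7.4 with 12.5 mM MgCl2, 1 mM EDTA, 0.2% BSA, incubated with compounds and 2.5 nM [3H]Rauwolscine for 60 minutes at 25 °C.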

[5] = biological target: T5, human recombinant histamine H2 receptor (Homo sapiens, UniProt P25021); assay: Histamine H2 radioligand binding ([125I]Aminopotentidine); conditions: percent inhibition of specific binding; screened at 1 μM; read-out: Inhibition of ligand binding, Hist. H2
T5 construct: expressed in transfected cells; host or cells: CHO-K1 cells
T5 sequence (P25021 whole entry): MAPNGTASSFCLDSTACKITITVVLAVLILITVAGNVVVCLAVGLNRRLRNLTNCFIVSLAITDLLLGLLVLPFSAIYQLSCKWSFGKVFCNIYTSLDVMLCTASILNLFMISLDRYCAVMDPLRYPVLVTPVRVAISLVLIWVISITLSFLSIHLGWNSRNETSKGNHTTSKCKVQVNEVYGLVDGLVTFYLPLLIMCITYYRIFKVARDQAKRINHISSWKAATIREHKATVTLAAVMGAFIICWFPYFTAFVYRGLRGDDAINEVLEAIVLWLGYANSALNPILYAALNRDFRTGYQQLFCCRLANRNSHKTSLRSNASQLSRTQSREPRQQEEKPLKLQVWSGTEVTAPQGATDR
Summary of the method: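 Test compounds were assessed for their ability to displace radioligand from the human recombinant histamine H2 receptor. Non-specific binding was determined in the presence of 3 μM Tiotidine, and results were expressed as percent inhibition of specific binding, with 1% DMSO serving as the vehicle.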

T1 sequence (P28223 whole entry): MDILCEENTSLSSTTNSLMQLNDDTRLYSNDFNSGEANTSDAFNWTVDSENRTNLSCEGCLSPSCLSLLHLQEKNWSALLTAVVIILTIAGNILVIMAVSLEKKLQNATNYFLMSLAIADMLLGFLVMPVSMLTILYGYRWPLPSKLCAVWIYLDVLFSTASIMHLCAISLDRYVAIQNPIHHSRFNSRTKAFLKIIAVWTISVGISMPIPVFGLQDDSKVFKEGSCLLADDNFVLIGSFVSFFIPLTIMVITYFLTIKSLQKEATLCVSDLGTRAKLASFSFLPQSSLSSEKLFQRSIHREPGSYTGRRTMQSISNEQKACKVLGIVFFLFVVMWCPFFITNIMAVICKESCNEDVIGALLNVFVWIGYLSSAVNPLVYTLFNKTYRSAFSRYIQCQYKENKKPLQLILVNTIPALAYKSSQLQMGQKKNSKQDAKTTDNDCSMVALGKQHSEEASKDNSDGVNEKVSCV

| Compound | Inhibition of ligand binding, Ser. 5-HT2A [1] [%] | Inhibition of ligand binding, Adren. alpha1D [2] [%] | Inhibition of ligand binding, Ser. 5-HT2C [3] [%] | Inhibition of ligand binding, Adren. alpha2B [4] [%] | inhibition at 1 µM [5] [%] |
| --- | --- | --- | --- | --- | --- |
| CN1CCc2c(c3c(Cl)cccc3n2CCc2ccccc2)C1 [Compound 81] | 99 | 47 | 98 | 90 | 57 |
| Cc1ccc2c(c1)c1c(n2CC(=O)N2CCc3ccccc3C2)CCN(C)C1 [Compound 398, 2-(1,2,3,4-tetrahydro-2,8-dimethylpyrido[4,3-b]indol-5-yl)-1-(3,4-dihydroisoquinolin-2(1H)-yl)ethanone] | 85 | 17 | 69 | 50 | 24 |
| CN1CCc2c(c3cc(Cl)ccc3n2CCn2cccc2)C1 [Compound 349, 8-Chloro-2-methyl-5-(2-pyrrol-1-yl-ethyl)-2,3,4,5-tetrahydro-1H-pyrido[4,3-b]indole] | 97 | 100 | 98 | 111 | 94 |
| Cc1ccc2c(c1)c1c(n2CCc2ccccc2)CCN(C(=O)OCC(Cl)(Cl)Cl)C1 [Compound 227, 2,2,2-trichloroethyl 3,4-dihydro-8-methyl-5-phenethyl-1H-pyrido[4,3-b]indole-2(5H)-carboxylate] | −2 | 11 | 4 | 0 | 1 |
| CN1CCc2c(c3cc(Cl)ccc3n2CCc2ccncc2)C1 [Compound 56] | 92 | 91 | 87 | 119 | 76 |
| CN1CCc2c(c3cc(Cl)ccc3n2CCc2ccc(F)cc2)C1 [Compound 162, 5-(4-fluorophenethyl)-8-chloro-2,3,4,5-tetrahydro-2-methyl-1H-pyrido[4,3-b]indole] | 98 | 90 | 94 | 112 | 94 |
| Cc1ccc2c(c1)c1c(n2CC(=O)N2CCSCC2)CCN(C)C1 [Compound 399, 2-(1,2,3,4-tetrahydro-2,8-dimethylpyrido[4,3-b]indol-5-yl)-1-thiomorpholinoethanone] | 8 | 6 | 73 | 11 | 10 |
| Cc1ccc2c(c1)c1c(n2CCc2cncc(C(F)(F)F)c2)CCN(C)C1 [Compound 425, 5-(2-(5-(trifluoromethyl)pyridin-3-yl)ethyl)-2,3,4,5-tetrahydro-2,8-dimethyl-1H-pyrido[4,3-b]indole] | 84 | 65 | 72 | 99 | 85 |
| Cc1ncc(CCn2c3c(c4cc(Cl)ccc42)CN(C)CC3)cn1 [Compound 361, 8-Chloro-2-methyl-5-[2-(2-methyl-pyrimidin-5-yl)-ethyl]-2,3,4,5-tetrahydro-1H-pyrido[4,3-b]indole] | 60 | 87 | 58 | 94 | 25 |
| CN1CCN(CCn2c3c(c4cc(Cl)ccc42)CN(C)CC3)CC1 [Compound 417, 8-chloro-2,3,4,5-tetrahydro-2-methyl-5-(2-(4-methylpiperazin-1-yl)ethyl)-1H-pyrido[4,3-b]indole] | 23 | 1 | 29 | −1 | 19 |
